Assay results taken from paper PMC4201869 (Neuroendocrinology, 2014).
Where “and” joins values, the source holds several entries; their conditions need not be identical. Equal values may be shown once. Where no end group is shown, it is not given here.

How the values were obtained:
GnRH neurons [1] = format: cell-based, rat
Kiss1R (Homo sapiens) = Kiss1R (Homo sapiens) (UniProt Q969F8); settings: cited from earlier work
GnRH neurons [2] = experiment: Current-voltage; format: cell-based, rat; settings: 100 nM Kp-10, compared to control; representative recording (Figure 5B)
GnRH neurons [3] = settings: adult male mouse; cited from earlier work
GnRH neurons [4] = experiment: Spontaneous action potential firing, current clamp, slices from female rats; format: cell-based, rat; settings: 7-10 min after addition
GnRH neurons [5] = settings: mice and guinea pigs; cited from earlier work
GnRH neurons [6] = test system: GnRH neurons

Sequence of UniProt Q969F8 (Q969F8 whole entry): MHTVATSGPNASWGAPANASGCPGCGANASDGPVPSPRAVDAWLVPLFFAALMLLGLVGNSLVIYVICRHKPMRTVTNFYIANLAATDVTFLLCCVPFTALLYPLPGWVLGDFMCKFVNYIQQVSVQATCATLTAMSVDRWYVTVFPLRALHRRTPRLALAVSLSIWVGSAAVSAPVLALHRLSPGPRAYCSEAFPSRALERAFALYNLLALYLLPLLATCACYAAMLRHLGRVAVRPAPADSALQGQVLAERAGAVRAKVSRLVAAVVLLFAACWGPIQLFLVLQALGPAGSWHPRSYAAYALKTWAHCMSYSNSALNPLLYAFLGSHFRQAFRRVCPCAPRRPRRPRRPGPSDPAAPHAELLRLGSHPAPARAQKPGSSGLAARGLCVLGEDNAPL
Sequence of Kp-10 (Q15726 whole entry, looked up): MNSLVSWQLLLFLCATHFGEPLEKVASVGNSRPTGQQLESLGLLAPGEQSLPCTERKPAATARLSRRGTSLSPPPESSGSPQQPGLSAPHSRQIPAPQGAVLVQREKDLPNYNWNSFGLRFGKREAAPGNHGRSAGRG

Q: What does the source list for “CART: Cocaine and Amphetamine Regulated Transcript (55–102, rat), American Peptide Company, excitatory neuropeptide (IPIYEKKYGQVPMCDAGEQCAVRKGARIGKLCDCPRGTSCNSFLLKCL; ends and bridges not checked; cysteine pairing not given here; UniProt P49192 82-129, looked up, fragment)”?
A: CART-induced firing and depolarization, in words (GnRH neurons [1]): persisted long after washout; GnRH neurons responding to CART (GnRH neurons [1]; 30 nM CART, 8 out of 12 cells from 5 animals, without TTX): 60–70%; membrane depolarization by CART alone under TTX (GnRH neurons [1]; 30 nM CART, TTX, n = 12 cells from 6 animals, mean ± SEM): 7.3 ± 0.6 mV and 7.3 ± 0.64 mV; membrane depolarization by CART (GnRH neurons [1]; 30 nM CART, without TTX, p<0.0001): 7.8 ± 0.1 mV

Q: With Kp-10 (from UniProt Q15726) as the substance, how does the Kd (Kiss1R (Homo sapiens)) read?
A: 2.7 nM

Q: With “YNWNSFGLRY-NH2 [Kp-10, Mouse KiSS-1 (110–119)-NH2]” as the substance, how does the “reversal potential of kisspeptin-induced current” value (GnRH neurons [2]) read?
A: −110 mV

Q: What about the “GnRH neurons activated by kisspeptin” value (GnRH neurons [3]) of the same substance?
A: about 90%

Q: What about the “effect on action potential firing, in words” value (GnRH neurons [4]) of the same substance?
A: stimulated the cell

Q: What about the “reversal potential of kisspeptin-induced currents” value (GnRH neurons [5]) of the same substance?
A: −100 to −110 mV

Q: And the “depolarization by submaximal dose” value (GnRH neurons [6]; 10 nM Kp-10, TTX, mean ± SEM)?
A: 14.6 ± 2.3 mV

Q: What about the maximum depolarization (GnRH neurons [6]; 100 nM Kp-10, TTX, mean ± SEM) of the same substance?
A: 20.2 ± 1.2 mV

Q: What about the “depolarization, in words” value (GnRH neurons [6]; current clamp, TTX 1.0 μM, female rats) of the same substance?
A: very prolonged, concentration-dependent depolarization of GnRH neurons that persisted long after washout of the agonist

Q: And the “cells responding to kisspeptin” value (GnRH neurons [6]; female rats, current clamp, TTX)?
A: Approximately 90%
